# System: HIV-1 (strain IIIB)
# Assay: MT4 Cell Antiviral Assay
# Format: cell-based
# Settings: Human immunodeficiency virus 1, 120 h; HIV-1 strain IIIB in MT4 cells, 5 days, Cell Titer-Glo; 50% decrease in HIV-induced cytopathic effect
# Method: Antiviral HIV activity and compound-induced cytotoxicity were measured in parallel based on a modified protocol of the propidium iodide based procedure in the human T-cell lymphotropic virus transformed cell line MT4. Aliquots of the test compounds were serially diluted in DMSO plated in 96-well plates. Exponentially growing MT4 cells were harvested and pelleted. Cell pellets were resuspended in fresh medium (RPMI 1640, 10% FCS, and gentamycin. Cell aliquots were infected by the addition of HIV-1 (strain IIIB) diluted to give a viral multiplicity of infection of 300×TCID50/million cells. A similar cell aliquot was diluted with medium to provide a mock-infected control. Cell infection was allowed to proceed for 1 hr at 37° C. in a tissue culture incubator with humidified 5% CO2 atmosphere. After the 1 hr incubation the virus/cell suspensions were diluted with fresh medium, and added to each well of the plate containing pre-diluted compound. Plates were then placed in a tissue culture incubator with humidified 5% CO2 for 5 days. […] The plates were analyzed in an automated plate reader for luminescence.assay. The control and standard used was efavirinz tested over a concentration range of 0.001 to 1 μM in every assay. The expected range of IC50 values for efavirinz is 0.1 to 1 nM.
# The antiviral effect of a test compound is reported as an IC50, i.e. the inhibitory concentration that would produce a 50% decrease in the HIV-induced cytopathic effect. This effect is measured by the amount of test compound required to restore 50% of the cell growth of HIV-infected MT4 cells, compared to uninfected MT4 cell controls. IC50 was calculated by RoboSage, Automated Curve Fitting Program.
# For each assay plate, the results (of wells containing uninfected cells or infected cells with no compound were averaged, respectively. For measurements of compound-induced cytotoxicty, results from wells containing various compound concentrations and uninfected cells were compared to the average of uninfected cells without compound treatment. Percent of cells remaining is determined by the following formula: Percent of cells remaining=(compound-treated uninfected cells/untreated uninfected cells)×100.
# A level of percent of cells remaining of 79% or less indicates a significant level of direct compound-induced cytotoxicity for the compound at that concentration. When this condition occurs the results from the compound-treated infected wells at this concentration are not included in the calculation of IC50.
# For measurements of compound antiviral activity, results from wells containing various compound concentrations and infected cells are compared to the average of uninfected and infected cells without compound treatment. Percent inhibition of virus is determined by the following formula: Percent inhibition of virus=(1−((ave. untreated uninfected cells−treated infected cells)/(ave. untreated uninfected cells−ave. untreated infected cells)))×100
row,Structure (SMILES),IC50
1,"CC(C)C1=C2[C@H]3CC[C@@H]4[C@@]5(C)CC[C@H](OC(=O)CC(C)(C)C(=O)O)C(C)(C)[C@@H]5CC[C@@]4(C)[C@]3(C)CC[C@@]2(/C=C/C(=O)N[C@H](C)c2ccc(Cl)cn2)CC1=O [Example 5, 4-(((3aS,5aR,5bR,7aR,9S,11aR,11bR,13aS)-3a-((E)-3-(((R)-1-(5-Chloropyridin-2-yl)ethyl)amino)-3-oxoprop-1-en-1-yl)-1-isopropyl-5a,5b,8,8,11a-pentamethyl-2-oxo-3,3a,4,5,5a,5b,6,7,7a,8,9,10,11,11a,1 b,12,13,13a-octadecahydro-2H-cyclopenta[a]chrysen-9-yl)oxy)-2,2-dimethyl-4-oxobutanoic acid]",< 10 nM
2,"Cc1ccc(NC(=O)/C=C/[C@@]23CC[C@]4(C)[C@H](CC[C@@H]5[C@@]6(C)CC[C@H](OC(=O)CC(C)(C)C(=O)O)C(C)(C)[C@@H]6CC[C@]54C)C2=C(C(C)C)C(=O)C3)cc1 [Example 21, 4-(((3aS,5aR,5bR,7aR,9S,11aR,11bR,13aS)-1-Isopropyl-5a,5b,8,8,11a-pentamethyl-2-oxo-3a-((E)-3-oxo-3-(p-tolylamino)prop-1-en-1-yl)-3,3a,4,5,5a,5b,6,7,7a,8,9,10,11,11a,11b,12,13,13a-octadecahydro-2H-cyclopenta[a]chrysen-9-yl)oxy)-2,2-dimethyl-4-oxobutanoic acid]",10 to 250 nM
3,"CC(C)C1=C2[C@H]3CC[C@@H]4[C@@]5(C)CC[C@H](OC(=O)CC(C)(C)C(=O)O)C(C)(C)[C@@H]5CC[C@@]4(C)[C@]3(C)CC[C@@]2(/C=C/C(=O)N[C@@H](C)c2cccc(Cl)c2)CC1=O [Example 23, 4-(((3aS,5aR,5bR,7aR,9S,11aR,11bR,13aS)-3a-((E)-3-(((S)-1-(3-Chlorophenyl)ethyl)amino)-3-oxoprop-1-en-1-yl)-1-isopropyl-5a,5b,8,8,11a-pentamethyl-2-oxo-3,3a,4,5,5a,5b,6,7,7a,8,9,10,11,11a,11b,12,13,13a-octadecahydro-2H-cyclopenta[a]chrysen-9-yl)oxy)-2,2-dimethyl-4-oxobutanoic acid]",10 to 250 nM
4,"CC(C)C1=C2[C@H]3CC[C@@H]4[C@@]5(C)CC[C@H](OC(=O)CC(C)(C)C(=O)O)C(C)(C)[C@@H]5CC[C@@]4(C)[C@]3(C)CC[C@@]2(/C=C/C(=O)N[C@H](C)c2ccncn2)CC1=O [Example 9, 4-(((3aS,5aR,5bR,7aR,9S,11aR,11bR,13aS)-1-Isopropyl-5a,5b,8,8,11a-pentamethyl-2-oxo-3a-((E)-3-oxo-3-(((R)-1-(pyrimidin-4-yl)ethyl)amino)prop-1-en-1-yl)-3,3a,4,5,5a,5b,6,7,7a,8,9,10,11,11a,11b,12,13,13a-octadecahydro-2H-cyclopenta[a]chrysen-9-yl)oxy)-2,2-dimethyl-4-oxobutanoic acid]",10 to 250 nM
5,"CC(C)C1=C2[C@H]3CC[C@@H]4[C@@]5(C)CC[C@H](OC(=O)CC(C)(C)C(=O)O)C(C)(C)[C@@H]5CC[C@@]4(C)[C@]3(C)CC[C@@]2(/C=C/C(=O)NC2(c3cccc(Cl)c3)CC2)CC1=O [Example 24, 4-(((3aS,5aR,5bR,7aR,9S,11aR,11bR,13aS)-3a-((E)-3-((1-(3-Chlorophenyl)cyclopropyl)amino)-3-oxoprop-1-en-1-yl)-1-isopropyl-5a,5b,8,8,11a-pentamethyl-2-oxo-3,3a,4,5,5a,5b,6,7,7a,8,9,10,11,11a,11b,12,13,13a-octadecahydro-2H-cyclopenta[a]chrysen-9-yl)oxy)-2,2-dimethyl-4-oxobutanoic acid]",< 10 nM
6,"CC(C)C1=C2[C@H]3CC[C@@H]4[C@@]5(C)CC[C@H](OC(=O)CC(C)(C)C(=O)O)C(C)(C)[C@@H]5CC[C@@]4(C)[C@]3(C)CC[C@@]2(/C=C/C(=O)N[C@H](C)c2ncccn2)CC1=O [Example 10, 4-(((3aS,5aR,5bR,7aR,9S,11aR,11bR,13aS)-1-Isopropyl-5a,5b,8,8,11a-pentamethyl-2-oxo-3a-((E)-3-oxo-3-(((R)-1-(pyrimidin-2-yl)ethyl)amino)prop-1-en-1-yl)-3,3a,4,5,5a,5b,6,7,7a,8,9,10,11,11a,11b,12,13,13a-octadecahydro-2H-cyclopenta[a]chrysen-9-yl)oxy)-2,2-dimethyl-4-oxobutanoic acid]",10 to 250 nM
7,"CC(C)C1=C2[C@H]3CC[C@@H]4[C@@]5(C)CC[C@H](OC(=O)CC(C)(C)C(=O)O)C(C)(C)[C@@H]5CC[C@@]4(C)[C@]3(C)CC[C@@]2(/C=C/C(=O)NC2(c3ccc(Cl)cc3)CC2)CC1=O [Example 1, 4-(((3aS,5aR,5bR,7aR,9S,11aR,11bR,13aS)-3a-((E)-3-((1-(4-Chlorophenyl)cyclopropyl)amino)-3-oxoprop-1-en-1-yl)-1-isopropyl-5a,5b,8,8,11a-pentamethyl-2-oxo-3,3a,4,5,5a,5b,6,7,7a,8,9,10,11,11a,11b,12,13,13a-octadecahydro-2H-cyclopenta[a]chrysen-9-yl)oxy)-2,2-dimethyl-4-oxobutanoic acid]",< 10 nM
8,"CC(C)C1=C2[C@H]3CC[C@@H]4[C@@]5(C)CC[C@H](OC(=O)CC(C)(C)C(=O)O)C(C)(C)[C@@H]5CC[C@@]4(C)[C@]3(C)CC[C@@]2(/C=C/C(=O)N[C@H](C)c2cccc(Cl)c2)CC1=O [Example 31, 4-(((3aS,5aR,5bR,7aR,9S,11aR,11bR,13aS)-3a-((E)-3-(((R)-1-(3-Chlorophenyl)ethyl)amino)-3-oxoprop-1-en-1-yl)-1-isopropyl-5a,5b,8,8,11a-pentamethyl-2-oxo-3,3a,4,5,5a,5b,6,7,7a,8,9,10,11,11a,11b,12,13,13a-octadecahydro-2H-cyclopenta[a]chrysen-9-yl)oxy)-2,2-dimethyl-4-oxobutanoic acid]",10 to 250 nM
9,"CC(C)C1=C2[C@H]3CC[C@@H]4[C@@]5(C)CC[C@H](OC(=O)CC(C)(C)C(=O)O)C(C)(C)[C@@H]5CC[C@@]4(C)[C@]3(C)CC[C@@]2(/C=C/C(=O)N[C@@H](C)c2ccccc2Cl)CC1=O [Example 25, 4-(((3aS,5aR,5bR,7aR,9S,11aR,11bR,13aS)-3a-((E)-3-(((S)-1-(2-Chlorophenyl)ethyl)amino)-3-oxoprop-1-en-1-yl)-1-isopropyl-5a,5b,8,8,11a-pentamethyl-2-oxo-3,3a,4,5,5a,5b,6,7,7a,8,9,10,11,11a,11b,12,13,13a-octadecahydro-2H-cyclopenta[a]chrysen-9-yl)oxy)-2,2-dimethyl-4-oxobutanoic acid]",10 to 250 nM
10,"CC(C)C1=C2[C@H]3CC[C@@H]4[C@@]5(C)CC[C@H](OC(=O)CC(C)(C)C(=O)O)C(C)(C)[C@@H]5CC[C@@]4(C)[C@]3(C)CC[C@@]2(/C=C/C(=O)O)CC1=O [Example 16, 4-(((3aS,5aR,5bR,7aR,9S,11aR,11bR,13aS)-3a-((E)-2-Carboxyvinyl)-1-isopropyl-5a,5b,8,8,11a-pentamethyl-2-oxo-3,3a,4,5,5a,5b,6,7,7a,8,9,10,11,11a,11b,12,13,13a-octadecahydro-2H-cyclopenta[a]chrysen-9-yl)oxy)-2,2-dimethyl-4-oxobutanoic acid]",250 to 10000 nM
11,"CC(C)C1=C2[C@H]3CC[C@@H]4[C@@]5(C)CC[C@H](OC(=O)CC(C)(C)C(=O)O)C(C)(C)[C@@H]5CC[C@@]4(C)[C@]3(C)CC[C@@]2(/C=C/C(=O)N[C@@H](C)c2cccc(Cl)c2)CC1 [Example 34, 4-(((3aR,5aR,5bR,7aR,9S,11aR,11bR,13aS)-3a-((E)-3-(((S)-1-(3-Chlorophenyl)ethyl)amino)-3-oxoprop-1-en-1-yl)-1-isopropyl-5a,5b,8,8,11a-pentamethyl-3,3a,4,5,5a,5b,6,7,7a,8,9,10,11,11a,11b,12,13,13a-octadecahydro-2H-cyclopenta[a]chrysen-9-yl)oxy)-2,2-dimethyl-4-oxobutanoic acid]",10 to 250 nM
12,"CC(C)C1=C2[C@H]3CC[C@@H]4[C@@]5(C)CC[C@H](OC(=O)CC(C)(C)C(=O)O)C(C)(C)[C@@H]5CC[C@@]4(C)[C@]3(C)CC[C@@]2(/C=C/C(=O)NC2(c3ncccn3)CC2)CC1=O [Example 13, 4-(((3aS,5aR,5bR,7aR,9S,11aR,11bR,13aS)-1-isopropyl-5a,5b,8,8,11a-pentamethyl-2-oxo-3a-((E)-3-oxo-3-((1-(pyrimidin-2-yl)cyclopropyl)amino)prop-1-en-1-yl)-3,3a,4,5,5a,5b,6,7,7a,8,9,10,11,11a,11b,12,13,13a-octadecahydro-2H-cyclopenta[a]chrysen-9-yl)oxy)-2,2-dimethyl-4-oxobutanoic acid]",10 to 250 nM

# — patent US9340513B2, “Propenoate derivatives of betulin” (GlaxoSmithKline LLC, priority 2011, dated 2016)
